Measured values reported in patent US20230095509A1, “NON-FIBRILLAR HEMOGLOBIN S OLIGOMERS AND METHODS TO IDENTIFY MODULATORS OF HEMOGLOBIN S POLYMERIZATION” (REGENTS OF THE UNIVERSITY OF MINNESOTA, priority 2021, published 2023).

Legend:
[1] = target: deoxy-HbS oligomers (sickle hemoglobin, HbS) (Homo sapiens, UniProt P68871+P69905, E7V); experiment: Dynamic light scattering (DLS) of deoxy-HbS oligomers at sub-nucleating concentration; format: biochemical; conditions: HbS 25 μM; for size of deoxyHbS oligomers (DLS effective diameter) relative to control: hit compounds 100 μM, two hours at room temperature, degassed with argon, FIG. 4C
Procedure: (FIG. 4A) Pilot screening with LOPAC library. Compounds that reduced the FRET efficiency below 3SD (black line) were selected for further characterization. […] Fluorescently labeled HbS samples were plated in a 1536 plate and treated separately with DMSO or the three hit compounds, chlormezanone, gabazine, and phosphoramidon disodium, in a dose-dependent manner from 0.1 to 1000 μM for 2 hours at room temperature and then vacuum degassed for 10 minutes, and then donor lifetimes were measured using a fluorescence plate reader. […] HbS samples (25 μM) were incubated separately with hit compounds (100 μM) or DMSO only for two hours at room temperature and degassed with argon for five minutes, and then DLS measurement were taken at room temperature. […] Effect of hit compounds on polymerization of deoxyHbS in high potassium phosphate buffer. Curves represent growth of polymer as a function of time in the presence or absence of drug.

[2] = tested on: RBC from individuals with SCD (genotype HbSS); experiment: Microfluidic measurement of oxygen-dependent sickle blood flow; format: cell-based, human; conditions: for area under the velocity response curve (AUC) relative to control / deceleration rate of blood during deoxygenation: 500 μM, RBC at 25% hematocrit, 7 individuals with SCD, 1 hour at 37° C.; for deceleration rate of blood during deoxygenation: FIG. 8C
Procedure: We treated RBC suspensions at 25% hematocrit from 7 individuals with SCD (genotype HbSS) with 500 μM of our hit compounds or voxelotor (positive control) and quantified the flow in our microfluidic platform under well-defined oxygen tensions. (FIG. 8A) Representative image of blood flowing in microfluidic device with overlay of arrows representing the velocities of features between frames using the Lucas Kanade Tomasi algorithm. (FIG. 8B) Area under velocity response curve (AUC) comparison among treated samples compared to the vehicle control. (FIG. 8C) Deceleration rate comparison among treated samples compared to the vehicle control. All statistics were performed using a one-tailed Wilcoxon signed rank test, a=0.05, * p-value<0.05, **p-value<0.01
(FIG. 9A) Raw oxygen and velocity recordings during microfluidic experiment. Arrow indicates the change in the steady state mean velocity after introducing hypoxic conditions on the microfluidic chip. (FIG. 9B) The on-chip oxygen concentration is cycled seven times during the experiment between 21% 02 and hypoxia. Changes in the velocity during each cycle are normalized to the average velocity of the initial 21% cycle. (FIG. 9C) Shaded region represents the area under the curve (AUC) using the steady state mean velocity changes at each oxygen concentration. This measurement quantifies the overall oxygen response of the blood by accounting for both the magnitude of the steady state mean velocity drop as well as the persistence of oxygen-dependence at higher oxygen concentrations (FIG. 9D) Blood deceleration is measured by a segmented moving mean of the velocity response during the hypoxic transition using Matlab signal processing.
Blood Sample Collection and Preparation for Microfluidic Assays: Sickle cell patient blood samples were collected under protocols approved by the Institutional Review Boards at Children's Minnesota Hospital, the University of Minnesota Medical Center, and the University of Minnesota. Patient blood samples were collected into sodium citrate vacutainer tubes and stored at 4° C. The samples were prepared for the microfluidic experiments by washing twice with Dulbecco's phosphate buffered saline (DPBS) after centrifugation for 5 minutes at 400g. Packed red blood cells were then isolated by centrifuging the washed samples for 10 minutes at 400g and removing all remaining DPBS. The packed red blood cells were added to fresh DPBS to achieve a target hematocrit of 25%. Each compound of interest was added to the sample to reach a target concentration of 500 uM and incubated at 37° C. for 1 hour before being run on the microfluidic device. The compounds were dissolved in DMSO at a concentration of 100 mM and stored at −20° C. or −80° C. prior to use.
Microfluidic Setup and Experimental Protocol: A previously described (Valdez et al., 2019, APL Bioengineering 3, 046101; Geisness et al., 2022, Haematologica, 107(6); Hansen et al., 2020, Br J Haematol, (2019). Br J Haematol. 188(6): 985-993), polydimethylsiloxane (PDMS) microfluidic device replicating the geometry of the post-capillary venules was used to study blood rheological behavior. […] The microfluidic channels were primed by flowing a 2% bovine serum albumin (BSA) in DPBS solution through the device to passivate the PDMS surface. Blood was then added to the inlet port and flowed through the device under a constant driving pressure to achieve an initial velocity of […] (PCD-15PSIG, Alicat Scientific). At the bifurcation, blood is diverted to two […] square channels—a bypass channel and an experimental channel. Separate gas inlets supply oxygen to each of the two blood channels independently via diffusion from the overlaid gas layer. The bypass channel is supplied with air and maintained under normoxic conditions. […]

Row | SMILES | size of deoxyHbS oligomers (DLS effective diameter) relative to control [1] | area under the velocity response curve (AUC) relative to control [2] | deceleration rate of blood during deoxygenation [2] | mean oligomer size of deoxyHbS (DLS effective diameter) ([1]; degassed with argon 5 minutes, room temperature, FIG. 1A) | modification of the hemoglobin ([2]; 500 μM at 25% hematocrit, assuming complete RBC partitioning and 30-36 g/dl intracellular hemoglobin)
1 | CN1C(=O)CCS(=O)(=O)C1c1ccc(Cl)cc1 (stereo not shown) [chlormezanone] | significantly decreased the oligomer size | significantly reduced the mean AUC | significantly reduced the deceleration rate |  | 
2 | COc1ccc(-c2ccc(=N)n(CCCC(=O)O)n2)cc1 [gabazine] | significantly decreased the oligomer size | insignificant trend towards reduced AUC | significantly reduced the deceleration rate |  | 
3 | CC(C)n1nccc1-c1ncccc1COc1cccc(O)c1C=O [voxelotor] |  | significantly reduced the mean AUC | significantly reduced the deceleration rate | dramatically reduced the mean oligomer size | 35-45%
